The target in one test is human orexin 1 receptor (Homo sapiens, UniProt O43613). The experiment in a line: Human orexin 1 receptor radioligand binding. Conditions: human orexin 1 receptor radioligand binding; averages of 2-20 runs; read-out: hOX1 Ki. On the procedure: The in vitro affinity of the compounds of the invention for the rat/human orexin 1 and human orexin 2 receptors was determined by competitive radioligand binding using [^3H](1-(5-(2-fluoro-phenyl)-2-methyl-thiazol-4-yl)-1-((S)-2-(5-phenyl-(1,3,4)oxadiazol-2-ylmethyl)-pyrrolidin-1-yl)-methanone) (Langmead et al., 2004) and [^3H]EMPA (n-ethyl-2[96-methoxypyridin-3-yl)-(toluene-2-sulfonyl)-amino]-N-pyridin-3-ylmethyl acetamide), respectively (Langmead et al., 2004, British Journal of Pharmacology 141:340-346; Malherbe et al., 2004, British Journal of Pharmacology 156:1326-41).
(§1) Data are analyzed using pc-Sandy macro and graphed on Graphpad Prism 5. For analysis, each concentration point is averaged from triplicate values and the averaged values are plotted on Graphpad Prism. The IC50 was determined by applying the following equation (GraphPad Prism 5.0, SanDiego) for one site competition where X=log (concentration) and Y=specific binding. Top denotes the total [^3H]-(1-(5-(2-fluoro-phenyl)-2-methyl-thiazol-4-yl)-1-((S)-2-(5-phenyl-(1,3,4)oxadiazol-2-ylmethyl)-pyrrolidin-1-yl)-methanone) binding, bottom denotes the nonspecific [^3H]-(1-(5-(2-fluoro-phenyl)-2-methyl-thiazol-4-yl)-1-((S)-2-(5-phenyl-(1,3,4)oxadiazol-2-ylmethyl)-pyrrolidin-1-yl)-methanone) binding. Graphpad Prism calculates Ki value from IC50 and the pre-determined Kd values for [^3H]-(1-(5-(2-fluoro-phenyl)-2-methyl-thiazol-4-yl)-1-((S)-2-(5-phenyl-(1,3,4)oxadiazol-2-ylmethyl)-pyrrolidin-1-yl)-methanone) and [3H]-EMPA. The Ki for each compound is then uploaded into 3DX. Each run comprises individual compounds in triplicate.
(§2) Rat and Human Orexin 1 Receptor Radioligand Binding Studies
Human Embryonic Kidney 293 cells (HEK293) stably expressing rat orexin 1 receptor (Genebank accession number NM_001525) or Chinese ovary cells (CHO) stably expressing human orexin 1 receptor (Genebank accession number NM_001526) were grown to confluency in DMEM (Hyclone, cat #SH30022), 10% FBS, 1×Pen/Strep, 1× sodium pyruvate, 10 mM HEPES, 600 μg/mL G418 and DMEM/F12 (Gibco, Cat #11039), 10% FBS, 1×Pen/Strep, 600 μg/mL G418 media, respectively on 150 cm^2 tissue culture plates, washed with 5 mM EDTA in PBS (HyClone Dulbecco's Phosphate Buffered Saline 1× with Calcium and Magnesium, Cat #SH30264.01, hereafter referred to simply as PBS) and scraped into 50 ml tubes. After centrifugation (2K×G, 5 min at 4° C.), the supernatant was aspirated and the pellets frozen and stored at −80° C. Cells were resuspended in PBS in the presence of 1 tablet of protease inhibitor cocktail (Roche, Cat. #11836145001) per 50 mL. Each cell pellet from a 15 cm plate was resuspended in 10 mL, stored on ice, and homogenized for 45 sec prior to addition to the reactions. Competition binding experiments in 96 well polypropylene plates were performed using [^3H]-(1-(5-(2-fluoro-phenyl)-2-methyl-thiazol-4-yl)-1-((S)-2-(5-phenyl-(1,3,4)oxadiazol-2-ylmethyl)-pyrrolidin-1-yl)-methanone) (Moraveck Corporation, specific activity=35.3 Ci/mmol), diluted to a 10 nM concentration in PBS (4 nM final). […] The final concentration of DMSO in the reactions is equal to or less than 0.1%. Total and nonspecific binding was determined in the absence and presence of 10 μM almorexant. The total volume of each reaction is 200 μL (20 μL of diluted compounds, 80 μL of [^3H]-(1-(5-(2-fluoro-phenyl)-2-methyl-thiazol-4-yl)-1-((S)-2-(5-phenyl-(1,3,4)oxadiazol-2-ylmethyl)-pyrrolidin-1-yl)-methanone) diluted in PBS and 100 μL of the cell suspension). Reactions were run for 60 min at room temperature and terminated by filtration through GF/C filter plates (PerkinElmer, Cat. #6005174) presoaked in 0.3% polyethylenimine using the cell harvester (PerkinElmer Filtermate). The plates were washed 3 times by aspirating 30 ml PBS through the plates. Plates were dried in 55° C. oven for 60 min, scintillation fluid was added, and the radioactivity was counted on a Topcount (Packard).

The target of a further test is rat orexin 1 receptor (Rattus norvegicus, UniProt P56718). Briefly: Rat orexin 1 receptor radioligand binding. Particulars: rat orexin 1 receptor radioligand binding; averages of 2-20 runs; read-out: rOX1 Ki. On the procedure:
as §1, §2
After centrifugation (2K×G, 5 min at 4° C.), the supernatant was aspirated and the pellets frozen and stored at −80° C. […] Each cell pellet from a 15 cm plate was resuspended in 10 mL, stored on ice, and homogenized for 45 sec prior to addition to the reactions. Competition binding experiments in 96 well polypropylene plates were performed using [^3H]-(1-(5-(2-fluoro-phenyl)-2-methyl-thiazol-4-yl)-1-((S)-2-(5-phenyl-(1,3,4)oxadiazol-2-ylmethyl)-pyrrolidin-1-yl)-methanone) (Moraveck Corporation, specific activity=35.3 Ci/mmol), diluted to a 10 nM concentration in PBS (4 nM final). […] The final concentration of DMSO in the reactions is equal to or less than 0.1%. Total and nonspecific binding was determined in the absence and presence of 10 μM almorexant. The total volume of each reaction is 200 μL (20 μL of diluted compounds, 80 μL of [^3H]-(1-(5-(2-fluoro-phenyl)-2-methyl-thiazol-4-yl)-1-((S)-2-(5-phenyl-(1,3,4)oxadiazol-2-ylmethyl)-pyrrolidin-1-yl)-methanone) diluted in PBS and 100 μL of the cell suspension). […] The plates were washed 3 times by aspirating 30 ml PBS through the plates. Plates were dried in 55° C. oven for 60 min, scintillation fluid was added, and the radioactivity was counted on a Topcount (Packard).

For another test, the target named is human orexin 2 receptor (Homo sapiens (Human), UniProt O43614). The experiment in a line: Human orexin 2 receptor radioligand binding ([3H]-EMPA). Conditions: averages of 2-20 runs, read-out: hOX2 Ki. On the procedure:
as §1
Human Orexin 2 Receptor Radioligand Binding Studies
HEK293 stably expressing human orexin 2 receptor (Genebank accession number NM_001526) were grown to confluency in DMEM (Hyclone, cat #SH30022), 10% FBS, 1×Pen/Strep, 1× NaPyruvate, 10 mM HEPES, 600 ug/ml G418 media on 150 cm^2 tissue culture plates, washed with 5 mM EDTA in PBS (HyClone Dulbecco's Phosphate Buffered Saline 1× with Calcium and Magnesium, Cat #SH30264.01, hereafter referred to simply as PBS) and scraped into 50 ml tubes. After centrifugation (2K×G, 5 min at 4° C.), the supernatant was aspirated and the pellets frozen and stored at −80° C. […] Each cell pellet from a 15 cm plate was resuspended in 10 mL, stored on ice, and homogenized for 45 sec just prior to addition to the reactions. Competition binding experiments in 96 well polypropylene plates were performed using [^3H]-EMPA (Moraveck Corporation, specific activity=29.6 Ci/mmol), diluted to a 5 nM concentration in PBS (2 nM final concentration). […] The final concentration of DMSO in the reactions is equal to or less than 0.1%. Total and nonspecific binding was determined in the absence and presence of 10 μM almorexant. The total volume of each reaction is 200 μL (20 μL of diluted compounds, 80 μL of [^3H]-EMPA diluted in PBS and 100 μL of the cell suspension). […] The plates were washed 3 times by aspirating 30 ml PBS through the plates. Plates were dried in 55° C. oven for 60 min, scintillation fluid was added, and the radioactivity was counted on a Topcount (Packard).

Molecules are shown by their SMILES.

Sequence of human orexin 2 receptor (O43614 whole entry): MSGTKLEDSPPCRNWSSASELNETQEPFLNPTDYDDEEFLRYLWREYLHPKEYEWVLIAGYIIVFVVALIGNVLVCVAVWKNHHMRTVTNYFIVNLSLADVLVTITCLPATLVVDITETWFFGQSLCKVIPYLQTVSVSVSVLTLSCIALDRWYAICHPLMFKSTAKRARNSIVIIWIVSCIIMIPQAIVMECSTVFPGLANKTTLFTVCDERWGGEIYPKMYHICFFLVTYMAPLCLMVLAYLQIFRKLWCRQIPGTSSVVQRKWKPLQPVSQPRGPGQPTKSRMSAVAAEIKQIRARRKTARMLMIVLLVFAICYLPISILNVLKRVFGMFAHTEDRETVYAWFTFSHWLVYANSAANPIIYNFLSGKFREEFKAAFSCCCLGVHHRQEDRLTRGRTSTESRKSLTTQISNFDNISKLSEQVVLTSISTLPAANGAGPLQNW

The Ki is a measure of affinity in units of concentration, obtained from inhibition or displacement. On to `COc1ccc(C(=O)N2CCC[C@@H](Nc3ccc(Cl)cn3)[C@@H]2C)c(-n2nccn2)c1` (relative stereo) [Example 181, ((2S*,3R*)-3-((5-chloropyridin-2-yl)amino)-2-methylpiperidin-1-yl)(4-methoxy-2-(2H-1,2,3-triazol-2-yl)phenyl)methanone], for which the Ki is 176 nM on human orexin 1 receptor, 93 nM at rat orexin 1 receptor and 5200 nM at human orexin 2 receptor.

`Cc1cnc(C(=O)N2CCC[C@@H](Nc3cnc(Cl)cn3)[C@@H]2C)c(-n2nccn2)c1` (relative stereo) [Example 182, ((2S*,3R*)-3-((5-chloropyrazin-2-yl)amino)-2-methylpiperidin-1-yl)(5-methyl-3-(2H-1,2,3-triazol-2-yl)pyridin-2-yl)methanone]: the Ki on human orexin 1 receptor was found to be 148 nM; on rat orexin 1 receptor, 93 nM.

As for `COc1ccc(-n2nccn2)c(C(=O)N2CCC[C@@H](Nc3cnc(C(F)(F)F)cn3)[C@@H]2C)c1` (relative stereo) [Example 184, (5-methoxy-2-(2H-1,2,3-triazol-2-yl)phenyl)((2S*,3R*)-2-methyl-3-((5-(trifluoromethyl)pyrazin-2-yl)amino)piperidin-1-yl)methanone], the values for the Ki on human orexin 1 receptor, at rat orexin 1 receptor and on human orexin 2 receptor were 6 nM, 7 nM and 191 nM, respectively.

Consider `Cc1cnc(C(=O)N2CCC[C@@H](N(C)c3nc4ccccc4o3)[C@@H]2C)c(-n2nccn2)c1` (relative stereo) [Example 187, ((2S*,3R*)-3-(benzo[d]oxazol-2-yl(methyl)amino)-2-methylpiperidin-1-yl)(5-methyl-3-(2H-1,2,3-triazol-2-yl)pyridin-2-yl)methanone], for which the Ki was 39 nM at human orexin 1 receptor and 20 nM on rat orexin 1 receptor.

Consider `Cc1ccc(C(=O)N2CCC[C@@H](N(C)c3ccc(C(F)(F)F)cn3)[C@@H]2C)c(-n2nccn2)n1` (relative stereo) [Example 188, (6-methyl-2-(2H-1,2,3-triazol-2-yl)pyridin-3-yl)((2S*,3R*)-2-methyl-3-(methyl(5-(trifluoromethyl)pyridin-2-yl)amino)piperidin-1-yl)methanone], for which the Ki was 100 nM on human orexin 1 receptor, 92 nM at rat orexin 1 receptor and over 10000 nM on human orexin 2 receptor.

For `C[C@H]1[C@H](Nc2ccc(C(F)(F)F)cn2)CCCN1C(=O)c1cccc(F)c1-c1ncccn1` (relative stereo) [Example 189, (3-fluoro-2-(pyrimidin-2-yl)phenyl)((2S*,3R*)-2-methyl-3-((5-(trifluoromethyl)pyridin-2-yl)amino)piperidin-1-yl)methanone], the Ki at human orexin 1 receptor is 5 nM; on rat orexin 1 receptor, 7 nM; on human orexin 2 receptor, 175 nM.

Turning to `Cc1noc(-c2cc(F)ccc2C(=O)N2CCC[C@@H](Nc3ccc(C(F)(F)F)cn3)[C@@H]2C)n1` (relative stereo) [Example 190, (4-fluoro-2-(3-methyl-1,2,4-oxadiazol-5-yl)phenyl)((2S*,3R*)-2-methyl-3-((5-(trifluoromethyl)pyridin-2-yl)amino)piperidin-1-yl)methanone], the inhibition constant Ki is 18 nM on human orexin 1 receptor and 26 nM at rat orexin 1 receptor.

In the case of `C[C@H]1[C@H](Nc2ccc(C(F)(F)F)cn2)CCCN1C(=O)c1ccc(F)cc1-c1ncccn1` (relative stereo) [Example 191, (4-fluoro-2-(pyrimidin-2-yl)phenyl)((2S*,3R*)-2-methyl-3-((5-(trifluoromethyl)pyridin-2-yl)amino)piperidin-1-yl)methanone], the inhibition constant Ki on human orexin 1 receptor was 9 nM; on rat orexin 1 receptor, 12 nM; on human orexin 2 receptor, 421 nM.

Turning to `C[C@H]1[C@H](Nc2ccc(C(F)(F)F)cn2)CCCN1C(=O)c1ccc(F)cc1-n1nccn1` (relative stereo) [Example 192, (4-fluoro-2-(2H-1,2,3-triazol-2-yl)phenyl)((2S*,3R*)-2-methyl-3-((5-(trifluoromethyl)pyridin-2-yl)amino)piperidin-1-yl)methanone], the inhibitory constant (Ki) is 25 nM on human orexin 1 receptor, 27 nM at rat orexin 1 receptor and 543 nM on human orexin 2 receptor.

For the compound `C[C@H]1[C@H](Nc2ncc(C(F)(F)F)cn2)CCCN1C(=O)c1ccc(F)cc1-n1nccn1` (relative stereo) [Example 198, (4-fluoro-2-(2H-1,2,3-triazol-2-yl)phenyl)((2S*,3R*)-2-methyl-3-((5-(trifluoromethyl)pyrimidin-2-yl)amino)piperidin-1-yl)methanone], the values for the Ki on human orexin 1 receptor, on rat orexin 1 receptor and at human orexin 2 receptor were 92 nM, 119 nM and 2500 nM, respectively.

For `Cc1ccc(C(=O)N2CCC[C@@H](Nc3ccc(C(F)(F)F)cn3)[C@@H]2C)c(-n2nccn2)n1` [Example 98, (6-methyl-2-(2H-1,2,3-triazol-2-yl)pyridin-3-yl)((2S,3R)-2-methyl-3-((5-(trifluoromethyl)pyridin-2-yl)amino)piperidin-1-yl)methanone], the Ki at human orexin 1 receptor turned out to be 21 nM; at rat orexin 1 receptor, 24 nM.

(Values after patent US9611251B2, “Substituted piperidine compounds and their use as orexin receptor modulators” (Janssen Pharmaceutica NV, priority 2013, dated 2017).)
